Measured values taken from patent publication US20060165715A1, “Gp41 inhibitor” (priority 2001, published 2006).

Columns and labels:
[1] = tested on: HIV Env-mediated cell fusion; assay: vaccinia virus-based reporter gene assay of HIV Env-mediated cell fusion (B-SC-1 target and effector cells, soluble CD4); design: species or system HIV-1; conditions: relative to both N35CCG-N13 and NCCG-gp41
[2] = target: HIV-1 (LAV) Env protein on effector cells (gp120/gp41; gp41 pre-hairpin fusion intermediate) (HIV-1 (LAV)) (UniProt P03377); assay: cell-based or functional assay
HIV-1 Env = conditions: from Ferrer et al., Nature Struct. Biol. 1999, given for comparison; read-out: IC50, fusion inhibitory activity; cited from earlier work
[3] = target: HIV-1 (LAV) Env protein on effector cells (gp120/gp41; gp41 pre-hairpin fusion intermediate) (HIV-1 (LAV), UniProt P03377 517-861); assay: cell-based or functional assay

## N34CCG (MGSSHHHHHHSSGLVPRGSHMSGIVQQQNNLLRAIEAQQHLLQLTVWGIKQCCGR)
[1]
  fold lower inhibitory activity: 5-6 fold

## N36 peptide (residues 546-581 of HIV-1 Env) (from UniProt P04578 546-581)
[2]
  IC50, inhibition of HIV-1 Env-mediated cell fusion (vaccinia reporter gene assay, beta-galactosidase): 16400 nM

## enfuvirtide
HIV-1 Env
  IC50: ~50 nM

B1: 6H-N34CCG, disulfide-linked trimer (designed binder)
chain: MGSSHHHHHHSSGLVPRGSHMSGIVQQQNNLLRAIEAQQHLLQLTVWGIKQCCGR
[3]
  IC50, inhibition of HIV Env-mediated cell fusion (vaccinia reporter gene assay, beta-galactosidase): 96 nM
